{
  "source": "a melting point compilation (Tetko et al.; mined from patent text by program, amines drawn as free bases though some values may be those of a salt)",
  "data": [
    {"units": {"melting point": "°C"}, "values": [
      {"smiles": "O=C(C=Cc1ccc(-c2ccc(Cl)cc2)cc1)NC(Cc1ccc(OCc2ccccc2)cc1)C(=O)O", "note": "(stereo unspecified)", "melting point": "253 to 254"},
      {"smiles": "NC(=O)c1nnn(Cc2cc(Cl)c(Sc3ccc(Cl)cc3)c(Cl)c2)c1N", "melting point": "180 to 182"},
      {"smiles": "O=C1c2ccccc2N(Cc2ccc(F)cc2)C2=NCCN12", "melting point": "192 to 195"},
      {"smiles": "O=C(O)Cc1ccc(Oc2ccc(C(F)(F)F)cn2)c(Cl)c1", "melting point": "138 to 139"},
      {"smiles": "COC(=O)C=C1CN=C(c2ccccc2)c2cc(Cl)ccc2N1", "melting point": "167 to 170"},
      {"smiles": "Cc1ccc(CC2=NOS(=O)N2)cc1C", "note": "(stereo unspecified)", "melting point": "127 to 130"},
      {"smiles": "COc1ccc2nc(COc3ccc(CC(S)C(N)=O)cc3)n(C)c2c1", "note": "(stereo unspecified)", "melting point": "204 to 208"},
      {"smiles": "CS(=O)c1ccc(-n2cnc3ccc(-c4nnc(SCc5cccc(C(F)(F)F)c5)o4)cc32)cc1", "note": "(stereo unspecified)", "melting point": "88 to 91"},
      {"smiles": "Oc1ccc(Oc2cccc(C(F)(F)F)n2)cc1", "melting point": "94 to 95"},
      {"smiles": "Cc1cn(Nc2ccncc2F)c2ccccc12", "melting point": 45},
      {"smiles": "CCCCc1nc2c(N)nc3cccnc3c2n1CCCCN1CC=Cc2cc(C(N)=O)ccc21", "melting point": "190 to 191"},
      {"smiles": "FC(F)(F)c1ccc2ncc(Br)cc2c1", "melting point": 79},
      {"smiles": "C=CCN(Cc1cc(Br)ccc1OCc1ccccc1)c1ccc(C(=O)O)nn1", "melting point": "135 to 136"},
      {"smiles": "O=C1NCCc2c(-c3ccc(Cl)cc3)[nH]c3cccc1c23", "melting point": "250 to 252"},
      {"smiles": "Cn1cc([N+](=O)[O-])nc1C=O", "melting point": 129},
      {"smiles": "COC(=O)c1ccc2c(CCCNc3ccccn3)nn(C)c2c1", "melting point": "101 to 104"},
      {"smiles": "CCOC(=O)c1c(C(F)(F)F)nc(C(F)(F)F)c(C(=O)O)c1Cl", "melting point": "113 to 115"},
      {"smiles": "CCCc1c(O)c(C(C)=O)cc(I)c1OCC(O)COc1ccc2c(=O)cc(C(=O)O)oc2c1CCC", "note": "(stereo unspecified)", "melting point": "173 to 176"},
      {"smiles": "O=C(CC(C(=O)O)c1ccccc1)Nc1cccc(/C=C/c2nc(C3CCC3)cs2)c1", "note": "(stereo unspecified)", "melting point": "202 to 203"},
      {"smiles": "CCOCc1cnc(NC(=O)C(Cc2ccc(F)cc2)c2ccc(S(C)(=O)=O)cc2)cn1", "note": "(stereo unspecified)", "melting point": "99 to 100"},
      {"smiles": "COc1ccc(OC)c(Sc2ncccc2C(=O)NCC23CC4CC(CC(C4)C2)C3)c1", "melting point": "135 to 136"},
      {"smiles": "CN1CCN(c2cccc3c2C[C@H](NC(=O)c2ccc(-c4ccc(O)cc4)cc2)CC3)CC1", "melting point": "261 to 262"},
      {"smiles": "N#CC(O)c1c(Cl)cccc1Cl", "note": "(stereo unspecified)", "melting point": 90},
      {"smiles": "CC(=Cc1ccc(C(F)(F)F)cc1)C1OCC(S(=O)Cc2ccc(Cl)cc2)CO1", "note": "(stereo unspecified)", "melting point": "192 to 194"},
      {"smiles": "O=S(=O)(c1cc(F)ccc1F)N1CCNc2ncc(I)cc21", "melting point": "187 to 188"},
      {"smiles": "Cc1[nH][nH]c(=O)c1Cc1ccc2ccccc2c1", "melting point": "240 to 244"},
      {"smiles": "CCn1cnc2c(Cl)nc(Cl)nc21", "melting point": "100 to 103"},
      {"smiles": "Brc1ccc(-c2cn([C@H]3CN4CCC3CC4)nn2)cc1", "melting point": 158},
      {"smiles": "COc1cc(OCCN2CCCCC2)ccc1/C=C/c1cc(/C=C/c2ccc3cc[nH]c3c2)n[nH]1", "melting point": "150 to 155"},
      {"smiles": "CC(C)(C)OC(=O)Nc1cccc(C(=O)OCC#N)c1", "melting point": "118 to 119"},
      {"smiles": "COC(=O)C1=C(C)NC(C)=C(C(=O)OCCN(O)CCC(c2ccccc2)c2ccccc2)C1c1cccc([N+](=O)[O-])c1", "note": "(stereo unspecified)", "melting point": "100 to 105"},
      {"smiles": "COc1cncnc1N1CCN(C(=O)OC(C)(C)C)CC1C", "note": "(stereo unspecified)", "melting point": "70 to 72"},
      {"smiles": "N#Cc1cc(C(F)(F)F)[nH]c1-c1ccc(C=O)o1", "melting point": "224 to 225"},
      {"smiles": "CCOC(=O)Nc1ccc2c(c1)C(c1ccccc1Cl)=CCC(=O)N2", "melting point": 241},
      {"smiles": "CC(Oc1ccccc1)C(=O)NCCCCn1cnc2c(N)nc3ccccc3c21", "note": "(stereo unspecified)", "melting point": "85 to 87.5"},
      {"smiles": "COc1ccc(Cl)c(NC(C)=S)c1", "melting point": "92 to 93"},
      {"smiles": "CC1(C)Oc2ccc(C(F)(F)F)cc2[C@@H](NC(=O)Nc2ccccc2)[C@@H]1O", "note": "(relative stereo)", "melting point": "174 to 175"},
      {"smiles": "CC(C)c1ccc(C2=C(c3ccc(S(C)(=O)=O)cc3)OC3(CCCC3)C2=O)cc1", "melting point": "139 to 140"},
      {"smiles": "Cc1ccc(C2c3c(C)c(-n4cc5cc6c(cc5c4)OCO6)c(C)c(C)c3OC2(C)C)cc1", "note": "(stereo unspecified)", "melting point": "236 to 242"},
      {"smiles": "COc1cc2c(cc1O)CCCC(=O)N2Cc1cc(OC)c(OC)c(OC)c1", "melting point": "170 to 171"},
      {"smiles": "Cc1ccc(C#N)c(OCc2ccc(OCc3nc(-c4ccccc4)oc3C)cc2)n1", "melting point": "116 to 117"},
      {"smiles": "CCCCc1nc2ccn(Cc3ccccc3)c(=O)c2n1Cc1ccc(-c2ccccc2-c2nnn[nH]2)cc1", "melting point": 130},
      {"smiles": "OC(CNc1ccc(Cl)c(Cl)c1)Cn1ccnc1", "note": "(stereo unspecified)", "melting point": "98 to 100"},
      {"smiles": "CCCCOc1ccc(S(=O)(=O)C2(C(=O)NO)CCN(CCCOc3ccccc3)CC2)cc1", "melting point": 84},
      {"smiles": "CC(C)Cn1nnc2cc3c(=O)n(C(C)Cn4ncnn4)nnc3cc2c1=O", "note": "(stereo unspecified)", "melting point": "132 to 134"},
      {"smiles": "CCOc1ccc(NC(=O)c2c[nH]c3c2C(=O)C(C)(C)CC3)c(F)c1", "melting point": "218 to 219"},
      {"smiles": "OCc1cc2cccc3cc(-c4ccc(O)cc4)c1n23", "melting point": "185 to 190"},
      {"smiles": "COc1cccc(C(=O)NC2(C(=O)N(C)OC)CC2)c1C", "melting point": "173 to 175"},
      {"smiles": "C(=C\\C1CCCCC1)/c1nc2ccccc2n1-c1ccccn1", "melting point": "105 to 106"},
      {"smiles": "CCCc1c(OCCCCCCc2cccc(OCCCCCC(=O)O)c2CCC(=O)O)ccc2c1CCCC2=O", "melting point": "100 to 101"},
      {"smiles": "CCC1(CC)COP(=O)(Cc2ccc([N+](=O)[O-])cc2)OC1", "melting point": "159 to 160"}
    ]}
  ]
}
